Experimental data: patent US9271971B2, “Pyrido[3,4-B]indoles and methods of use” (Medivation Technologies, Inc., priority 2009, dated 2016)

Experiments:
[1] = target: human recombinant serotonin (5-Hydroxytryptamine) 5-HT7 receptor (Homo sapiens, UniProt P34969); assay: Serotonin 5-HT7 radioligand binding assay; conditions: [3H]LSD specific binding; for inhibition at 1 µM: read-out: Percent Inhibition of ligand binding, Serotonin (1 μM ligand concentration) 5-HT7
Experimental: To evaluate in radioligand binding assays the activity of compounds of the invention, human recombinant serotonin (5-Hydroxytryptamine) 5-HT7 receptor expressed in Chinese hamster ovary (CHO) cells [Roth, B. L. et al., J. Pharmacol. Exp. Ther. (1994), 268:1403; Shen, Y. et al., J. Biol. Chem. (1993), 268:18200] in a modified Tris-HCl buffer (50 mM Tris-HCl, pH 7.4, 10 mM MgCl2, 0.5 mM EDTA) was used. Compounds of invention were incubated with 5.5 nM [^3H] Lysergic acid diethylamide (LSD) for 2 h at 25° C. Non-specific binding was estimated in the presence of 10 μM Serotonin (5-HT). Receptor proteins were filtered and washed, the filters were then counted to determine [^3H]LSD specifically bound. Compounds were screened at 1 μM or lower, using 1% DMSO as vehicle. Biochemical assay results are presented as the percent inhibition of specific binding in Table 4.

[2] = target: human recombinant histamine H1 receptor (Homo sapiens, UniProt P35367); assay: Histamine H1 radioligand binding assay; conditions: [3H]Pyrilamine specific binding; for inhibition at 1 µM: read-out: Percentage Inhibition, Histamine Binding (1 μM) H1
Experimental: To evaluate in radioligand binding assays the activity of compounds of the invention, human recombinant histamine H1 receptor expressed in Chinese hamster ovary (CHO) cells [De Backer, M. D. et al., Biochem. Biophys. Res. Comm. (1993), 197(3):1601] in a modified Tris-HCl buffer (50 mM Tris-HCl, pH 7.4, 2 mM MgCl2, 100 mM NaCl, 250 mM Sucrose) was used. Compounds of the invention were incubated with 1.2 nM [^3H]Pyrilamine for 180 min. at 25° C. Non-specific binding was estimated in the presence of 1 μM pyrilamine. Receptor proteins were filtered and washed, the filters were then counted to determine [^3H]Pyrilamine specifically bound. Compounds were screened at 1 μM or lower, using 1% DMSO as vehicle. Biochemical assay results are presented as the percent inhibition of specific binding in Table 2.

[3] = target: T1, human recombinant adrenergic α2C receptor (Homo sapiens, UniProt P18825); assay: Adrenergic α2C radioligand binding assay; conditions: [3H]MK-912 specific binding, read-out: Percent Inhibition of ligand binding, Adrenergic (0.1 μM ligand conc.) α2C
T1 construct: expressed in transfected cells; host or cells: insect Sf9 cells
T1 sequence (P18825 1-462): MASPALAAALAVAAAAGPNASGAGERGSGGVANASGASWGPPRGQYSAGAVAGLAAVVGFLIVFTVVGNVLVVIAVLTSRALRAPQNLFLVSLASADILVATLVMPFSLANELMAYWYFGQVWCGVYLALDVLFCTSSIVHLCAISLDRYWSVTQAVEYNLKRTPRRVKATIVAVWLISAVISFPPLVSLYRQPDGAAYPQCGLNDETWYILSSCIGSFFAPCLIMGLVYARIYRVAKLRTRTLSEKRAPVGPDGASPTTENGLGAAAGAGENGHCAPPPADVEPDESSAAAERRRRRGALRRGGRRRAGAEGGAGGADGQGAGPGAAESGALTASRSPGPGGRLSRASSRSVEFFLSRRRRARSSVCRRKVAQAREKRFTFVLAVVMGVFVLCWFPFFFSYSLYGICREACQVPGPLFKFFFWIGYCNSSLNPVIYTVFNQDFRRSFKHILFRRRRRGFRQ
Experimental: To evaluate in radioligand binding assays the activity of compounds of the invention, human recombinant adrenergic α2C receptor expressed in insect Sf9 cells [Uhlen, S et al., J. Pharmacol. Exp. Ther. (1994), 271:1558] in a modified Tris-HCl buffer (50 mM Tris-HCl, pH 7.4, 12.5 mM MgCl2, 2 mM EDTA) was used. Compounds of the invention were incubated with 1 nM [^3H]MK-912 for 60 min. at 25° C. Non-specific binding was estimated in the presence of 10 μM WB-4101. Receptor proteins were filtered and washed, the filters were then counted to determine [^3H]MK-912 specifically bound. Compounds were screened at 1 μM or lower, using 1% DMSO as vehicle. Compounds of the invention were tested in this biochemical assay. Biochemical assay results for representative compounds were presented as the percent inhibition of specific binding in Table 3.

[4] = target: T2, rat adrenergic α1B receptor (Rattus norvegicus, UniProt P15823); assay: Adrenergic α1B radioligand binding assay; conditions: [3H]Prozosin specific binding, read-out: Percent Inhibition of ligand binding, Adrenergic (0.1 μM ligand conc.) α1B
T2 construct: rat adrenergic α1B receptor obtained from Wistar Rat liver; from tissue; host or cells: Wistar Rat liver
T2 sequence (P15823 1-515): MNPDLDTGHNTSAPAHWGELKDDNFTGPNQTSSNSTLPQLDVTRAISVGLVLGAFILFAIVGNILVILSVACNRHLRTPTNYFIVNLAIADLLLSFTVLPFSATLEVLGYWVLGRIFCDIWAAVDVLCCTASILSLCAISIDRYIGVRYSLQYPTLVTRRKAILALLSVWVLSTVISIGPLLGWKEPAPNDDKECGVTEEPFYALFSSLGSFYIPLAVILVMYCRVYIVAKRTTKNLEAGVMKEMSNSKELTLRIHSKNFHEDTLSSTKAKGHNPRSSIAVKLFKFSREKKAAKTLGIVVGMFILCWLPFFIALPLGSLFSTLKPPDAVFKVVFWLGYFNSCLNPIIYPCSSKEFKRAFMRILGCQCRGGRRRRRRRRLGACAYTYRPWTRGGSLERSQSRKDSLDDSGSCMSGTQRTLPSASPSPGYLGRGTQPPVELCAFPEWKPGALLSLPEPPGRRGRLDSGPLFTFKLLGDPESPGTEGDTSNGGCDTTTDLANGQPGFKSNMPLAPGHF
Experimental: To evaluate in radioligand binding assays the activity of compounds of the invention, rat adrenergic α1B receptor obtained from Wistar Rat liver [Garcia-S′ainz, J. A. et al., Biochem. Biophys. Res. Commun. (1992), 186:760; Michel, A. D. et al., Br. J. Pharmacol. (1989), 98:883] in a modified Tris-HCl buffer (50 mM Tris-HCl buffer, pH 7.4, 0.5 mM EDTA) was used. Compounds of the invention were incubated with 0.25 nM [^3H]Prozosin for 60 min. at 25° C. Non-specific binding was estimated in the presence of 10 μM phentolamine. Receptor proteins were filtered and washed, the filters were then counted to determine [^3H]Prozosin specifically bound. Compounds were screened at 1 μM or lower, using 1% DMSO as vehicle. Compounds of the invention were tested in this biochemical assay. Biochemical assay results for representative compounds were presented as the percent inhibition of specific binding in Table 3.

Chain of human recombinant histamine H1 receptor (P35367 whole entry): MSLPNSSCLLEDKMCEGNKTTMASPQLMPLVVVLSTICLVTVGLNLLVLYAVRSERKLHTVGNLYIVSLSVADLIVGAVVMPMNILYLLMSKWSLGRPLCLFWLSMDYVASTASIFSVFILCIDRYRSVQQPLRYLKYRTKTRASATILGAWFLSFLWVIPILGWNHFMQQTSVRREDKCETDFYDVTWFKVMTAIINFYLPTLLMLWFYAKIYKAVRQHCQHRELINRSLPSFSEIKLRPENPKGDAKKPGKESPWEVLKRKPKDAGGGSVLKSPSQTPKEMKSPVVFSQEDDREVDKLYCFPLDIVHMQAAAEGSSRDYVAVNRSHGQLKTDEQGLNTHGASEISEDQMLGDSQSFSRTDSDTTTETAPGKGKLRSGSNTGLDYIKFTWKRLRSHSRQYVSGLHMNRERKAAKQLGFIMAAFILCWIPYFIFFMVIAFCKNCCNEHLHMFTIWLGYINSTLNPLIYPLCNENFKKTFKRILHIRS
Chain of human recombinant serotonin (5-Hydroxytryptamine) 5-HT7 receptor (P34969 whole entry): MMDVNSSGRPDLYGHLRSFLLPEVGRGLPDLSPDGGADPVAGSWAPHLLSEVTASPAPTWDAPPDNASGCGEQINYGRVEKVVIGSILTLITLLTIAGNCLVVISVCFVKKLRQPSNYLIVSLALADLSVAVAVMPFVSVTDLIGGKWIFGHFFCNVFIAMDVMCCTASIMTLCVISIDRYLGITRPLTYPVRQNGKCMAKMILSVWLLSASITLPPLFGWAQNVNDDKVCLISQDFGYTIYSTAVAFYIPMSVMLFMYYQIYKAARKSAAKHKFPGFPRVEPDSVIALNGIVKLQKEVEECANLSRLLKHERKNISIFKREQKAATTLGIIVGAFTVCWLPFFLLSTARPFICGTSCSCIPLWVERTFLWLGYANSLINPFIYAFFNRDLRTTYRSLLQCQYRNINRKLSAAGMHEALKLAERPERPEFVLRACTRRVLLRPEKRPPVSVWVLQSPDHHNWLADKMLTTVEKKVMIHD

In the case of `Cc1ccc2c(c1)c1c(n2CC(O)c2ccc(F)cc2)CN2CCC1C2` (stereo not drawn) [Compound 31], the inhibition at 1 µM [1] is reported as 73% and the inhibition at 1 µM [2] is reported as 42%.
`Cc1ccc2c(c1)c1c(n2CC(=O)NC2CCCCC2)CN2CCC1C2` (stereo not drawn) [Compound 23] gave an inhibition at 1 µM [2] of 13%.
`Cc1ccc2c(c1)c1c(n2CC(C)(O)c2ccc(Cl)c(Cl)c2)CN2CCC1C2` (stereo not drawn) [Compound 13] gave an inhibition at 1 µM [2] of 24%.
`C/C(=C\n1c2c(c3cc(C)ccc31)C1CCN(C2)C1)c1ccc(Cl)cc1Cl` (stereo not drawn) [Compound 33] was tested, and the inhibition at 0.1 µM [3] was 16%, the inhibition at 1 µM [1] was 96% and the “Percentage Inhibition, Histamine Binding (1 μM) H1” value (“Percentage Inhibition” below) [2] was 76%. The inhibition at 0.1 µM [4] was 28%.
`Cc1ccc2c(c1)c1c(n2CCc2cncc(F)c2)CN2CCC1C2` (stereo not drawn) [Compound 9] showed an inhibition at 1 µM [2] of 89%.
For `C/C(=C\n1c2c(c3cc(C)ccc31)C1CCN(C2)C1)c1ccc(Cl)cc1Cl` (stereo not drawn) [Compound 34], the “Percent Inhibition of ligand binding, Serotonin (1 μM ligand concentration) 5-HT7” value [1] was 86% and the “Percentage Inhibition” value [2] was 34%.
For `Cc1ccc(C(O)Cn2c3c(c4cc(C)ccc42)C2CCN(C3)C2)cc1` (stereo not drawn) [Compound 5], the inhibition at 1 µM [2] was 48%.
In the case of `COc1ccc(C(O)Cn2c3c(c4cc(C)ccc42)C2CCN(C3)C2)cc1F` (stereo not drawn) [Compound 6], the inhibition at 1 µM [2] is reported as 86%.
With `Cc1ccc2c(c1)c1c(n2CC(C)(O)c2ccc(F)c(Cl)c2)CN2CCC1C2` (stereo not drawn) [Compound 18] the inhibition at 1 µM [2] was 21%.
In the case of `Cc1ccc2c(c1)c1c(n2CC(=O)c2ccc(Cl)cc2)CN2CCC1C2` (stereo not drawn) [Compound 29], the inhibition at 1 µM [1] is reported as 81% and the inhibition at 1 µM [2] is reported as 56%.
`C/C(=C\n1c2c(c3cc(C)ccc31)C1CCN(C2)C1)c1ccc(F)c(F)c1` (stereo not drawn) [Compound 39] gave an inhibition at 1 µM [1] of 96% and an inhibition at 1 µM [2] of 26%.
With `Cc1ccc2c(c1)c1c(n2CC(C)(O)c2ccc(F)cc2)CN2CCC1C2` (stereo not drawn) [Compound 2] the inhibition at 1 µM [2] was 21%.
In the case of `Cc1ccc2c(c1)c1c(n2CCc2ccncc2)CN2CCC1C2` (stereo not drawn) [Compound 30], the inhibition at 1 µM [1] is reported as 95% and the inhibition at 1 µM [2] is reported as 76%.
Work on `Cc1ccc2c(c1)c1c(n2C#Cc2ccc(Cl)cc2)CN2CCC1C2` (stereo not drawn) [Compound 35] yielded an inhibition at 1 µM [1] of 35% and an inhibition at 1 µM [2] of 0%.
Compound `Cc1ccc(/C=C/n2c3c(c4cc(C)ccc42)C2CCN(C3)C2)cc1` (stereo not drawn) [Compound 10] has an inhibition at 1 µM [2] of 70%.
`Cc1ccc2c(c1)c1c(n2C(=O)Cc2ccc(F)cc2)CN2CCC1C2` (stereo not drawn) [Compound 43] gave an inhibition at 1 µM [1] of 41% and an inhibition at 1 µM [2] of 16%.
`Cc1ccc(C(C)(O)Cn2c3c(c4cc(C)ccc42)C2CCN(C3)C2)cc1` (stereo not drawn) [Compound 20] showed an inhibition at 1 µM [2] of 21%.
Work on `Cc1ccc2c(c1)c1c(n2CC(C)(O)c2ccc(Cl)cc2Cl)CN2CCC1C2` (stereo not drawn) [Compound 14] yielded an inhibition at 1 µM [2] of 37%.
`Cc1ccc2c(c1)c1c(n2CC(C)(O)c2ccc(F)cc2F)CN2CCC1C2` (stereo not drawn) [Compound 17] gave an inhibition at 1 µM [2] of 16%.
`Cc1ccc2c(c1)c1c(n2CC(C)(O)c2ccc(F)c(F)c2)CN2CCC1C2` (stereo not drawn) [Compound 15] was tested, and the inhibition at 1 µM [2] was 82%.
For `COc1ccc(C(O)Cn2c3c(c4cc(C)ccc42)C2CCN(C3)C2)cc1OC` (stereo not drawn) [Compound 8], the inhibition at 1 µM [2] was 33%.
For `Cc1ccc2c(c1)c1c(n2CC(=O)c2ccc(F)cc2)CN2CCC1C2` (stereo not drawn) [Compound 28], the inhibition at 1 µM [1] was 82% and the inhibition at 1 µM [2] was 64%.
Compound `Cc1ccc2c(c1)c1c(n2CC(=O)N2CCCCC2)CN2CCC1C2` (stereo not drawn) [Compound 7] has an inhibition at 1 µM [2] of 17%.
Compound `COc1ccc(/C(C)=C/n2c3c(c4cc(C)ccc42)C2CCN(C3)C2)cc1F` (stereo not drawn) [Compound 41] has an inhibition at 1 µM [1] of 90% and an inhibition at 1 µM [2] of 21%.
In the case of `Cc1ccc2c(c1)c1c(n2CC(=O)N2CCOCC2)CN2CCC1C2` (stereo not drawn) [Compound 26], the inhibition at 1 µM [2] is reported as 17%.
With `C/C(=C\n1c2c(c3cc(C)ccc31)C1CCN(C2)C1)c1cccnc1` (stereo not drawn) [Compound 42] the inhibition at 1 µM [1] was 92% and the inhibition at 1 µM [2] was 20%.
With `C=C(Cn1c2c(c3cc(C)ccc31)C1CCN(C2)C1)c1ccc(F)cc1` (stereo not drawn) [Compound 3] the “Percentage Inhibition” value [2] was 60% and the inhibition at 1 µM [2] was 59%.
`Cc1ccc2c(c1)c1c(n2CC(=O)N2CCNCC2)CN2CCC1C2` (stereo not drawn) [Compound 24] was tested, and the inhibition at 1 µM [2] was 5%.
`C/C(=C/n1c2c(c3cc(C)ccc31)C1CCN(C2)C1)c1ccccc1F` (stereo not drawn) [Compound 37] showed an inhibition at 1 µM [1] of 93% and an inhibition at 1 µM [2] of 78%.
`Cc1ccc2c(c1)c1c(n2CC(=O)c2ccccc2)CN2CCC1C2` (stereo not drawn) [Compound 21] showed an inhibition at 1 µM [2] of 40%.
Compound `Cc1ccc2c(c1)c1c(n2CCc2ccc(C(F)(F)F)nc2)CN2CCC1C2` (stereo not drawn) [Compound 1] has an inhibition at 1 µM [2] of 32%.
For `Cc1ccc2c(c1)c1c(n2CCc2ccccn2)CN2CCC1C2` (stereo not drawn) [Compound 11], the inhibition at 1 µM [2] was 77%.
`Cc1ccc2c(c1)c1c(n2CC(=O)N(C)C)CN2CCC1C2` (stereo not drawn) [Compound 27] gave an inhibition at 1 µM [2] of 10%.
With `C/C(=C\n1c2c(c3cc(C)ccc31)C1CCN(C2)C1)c1ccc(Cl)c(Cl)c1` (stereo not drawn) [Compound 40] the inhibition at 1 µM [1] was 95% and the inhibition at 1 µM [2] was 57%.
Compound `Cc1ccc2c(c1)c1c(n2CC(C)(O)c2ccc(Cl)cc2)CN2CCC1C2` (stereo not drawn) [Compound 16] has an inhibition at 1 µM [2] of 20%.
`Cc1ccc2c(c1)c1c(n2CC(O)c2ccccc2)CN2CCC1C2` (stereo not drawn) [Compound 4] was tested, and the inhibition at 1 µM [2] was 67%.
With `C/C(=C\n1c2c(c3cc(C)ccc31)C1CCN(C2)C1)c1ccc(F)cc1` (stereo not drawn) [Compound 22] the “Percentage Inhibition” value [2] was 58% and the inhibition at 1 µM [2] was 52%.
Compound `Cc1ccc2c(c1)c1c(n2CCc2ccc(C)nc2)CN2CCC1C2` (stereo not drawn) [Compound 12] has an inhibition at 1 µM [2] of 59%.
In the case of `Cc1ccc2c(c1)c1c(n2CC(=O)N2CCC(C)CC2)CN2CCC1C2` (stereo not drawn) [Compound 25], the inhibition at 1 µM [2] is reported as 30%.
`Cc1ccc2c(c1)c1c(n2CCc2nc(-c3ccccc3)cs2)CN2CCC1C2` (stereo not drawn) [Compound 19] showed an inhibition at 1 µM [2] of 82%.
